Results published in publication PMC3773576 (Cell Research, 2013).

What was measured:
[1] = target: T1, KCNQ2 potassium channel (Kv7.2) (Homo sapiens, UniProt O43526); experiment: whole-cell voltage clamp in CHO cells; type: cell-based
[2] = target: T1, KCNQ2 potassium channel (Kv7.2); experiment: whole-cell voltage clamp in CHO cells, with VSD mutagenesis; type: cell-based

T1 sequence (O43526 whole entry): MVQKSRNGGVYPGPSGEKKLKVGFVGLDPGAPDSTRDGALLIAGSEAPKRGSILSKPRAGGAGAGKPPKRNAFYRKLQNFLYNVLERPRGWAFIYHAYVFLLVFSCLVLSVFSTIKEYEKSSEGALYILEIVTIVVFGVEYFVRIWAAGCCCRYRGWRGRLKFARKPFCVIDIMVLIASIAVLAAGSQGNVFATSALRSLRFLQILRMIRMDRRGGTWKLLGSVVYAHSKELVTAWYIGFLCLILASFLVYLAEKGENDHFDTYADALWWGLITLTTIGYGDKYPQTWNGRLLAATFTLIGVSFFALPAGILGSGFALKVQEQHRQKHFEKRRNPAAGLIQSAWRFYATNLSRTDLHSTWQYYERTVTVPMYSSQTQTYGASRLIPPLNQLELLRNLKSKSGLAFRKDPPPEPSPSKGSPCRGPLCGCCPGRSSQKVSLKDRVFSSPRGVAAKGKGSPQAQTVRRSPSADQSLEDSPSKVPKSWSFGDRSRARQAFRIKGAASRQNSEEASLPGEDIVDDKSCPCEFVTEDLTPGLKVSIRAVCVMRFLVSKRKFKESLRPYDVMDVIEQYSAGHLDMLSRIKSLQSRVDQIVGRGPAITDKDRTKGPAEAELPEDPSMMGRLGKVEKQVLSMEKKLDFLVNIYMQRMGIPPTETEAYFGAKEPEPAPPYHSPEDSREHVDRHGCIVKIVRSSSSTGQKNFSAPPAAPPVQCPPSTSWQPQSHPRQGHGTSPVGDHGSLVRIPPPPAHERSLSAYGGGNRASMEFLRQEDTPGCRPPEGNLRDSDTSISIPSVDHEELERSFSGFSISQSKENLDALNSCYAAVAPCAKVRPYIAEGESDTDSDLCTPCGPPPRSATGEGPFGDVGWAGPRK

SMILES	whole-cell voltage clamp in CHO cells [1]	EC50 [2] [nM]
O=C(Nc1ccc(Cl)nc1)c1ccccc1 [YGP1, N-(6-Chloropyridin-3-yl)benzamide]	Electrophysiological recording showed that YGP1 still exhibited potentiation activity on KCNQ2 as ztz240 did	
O=C(Nc1ccc(Cl)nc1)c1ccc(F)cc1 [ztz240]		2810
